The values that follow are results of earlier work, collected in US9555029B2 (HIKMA PHARMACEUTICALS, priority 2013, dated 2017).

Molecules are shown by their SMILES.

The target in data set [1] is P-gp (Homo sapiens, UniProt P08183). The settings on record: FDA definition; cited from earlier work.
Data set [2] has as its target CYP3A4 (Homo sapiens, UniProt P08684). The settings on record: FDA definition of relative strength; cited from earlier work.

Sequence of P-gp (P08183 whole entry): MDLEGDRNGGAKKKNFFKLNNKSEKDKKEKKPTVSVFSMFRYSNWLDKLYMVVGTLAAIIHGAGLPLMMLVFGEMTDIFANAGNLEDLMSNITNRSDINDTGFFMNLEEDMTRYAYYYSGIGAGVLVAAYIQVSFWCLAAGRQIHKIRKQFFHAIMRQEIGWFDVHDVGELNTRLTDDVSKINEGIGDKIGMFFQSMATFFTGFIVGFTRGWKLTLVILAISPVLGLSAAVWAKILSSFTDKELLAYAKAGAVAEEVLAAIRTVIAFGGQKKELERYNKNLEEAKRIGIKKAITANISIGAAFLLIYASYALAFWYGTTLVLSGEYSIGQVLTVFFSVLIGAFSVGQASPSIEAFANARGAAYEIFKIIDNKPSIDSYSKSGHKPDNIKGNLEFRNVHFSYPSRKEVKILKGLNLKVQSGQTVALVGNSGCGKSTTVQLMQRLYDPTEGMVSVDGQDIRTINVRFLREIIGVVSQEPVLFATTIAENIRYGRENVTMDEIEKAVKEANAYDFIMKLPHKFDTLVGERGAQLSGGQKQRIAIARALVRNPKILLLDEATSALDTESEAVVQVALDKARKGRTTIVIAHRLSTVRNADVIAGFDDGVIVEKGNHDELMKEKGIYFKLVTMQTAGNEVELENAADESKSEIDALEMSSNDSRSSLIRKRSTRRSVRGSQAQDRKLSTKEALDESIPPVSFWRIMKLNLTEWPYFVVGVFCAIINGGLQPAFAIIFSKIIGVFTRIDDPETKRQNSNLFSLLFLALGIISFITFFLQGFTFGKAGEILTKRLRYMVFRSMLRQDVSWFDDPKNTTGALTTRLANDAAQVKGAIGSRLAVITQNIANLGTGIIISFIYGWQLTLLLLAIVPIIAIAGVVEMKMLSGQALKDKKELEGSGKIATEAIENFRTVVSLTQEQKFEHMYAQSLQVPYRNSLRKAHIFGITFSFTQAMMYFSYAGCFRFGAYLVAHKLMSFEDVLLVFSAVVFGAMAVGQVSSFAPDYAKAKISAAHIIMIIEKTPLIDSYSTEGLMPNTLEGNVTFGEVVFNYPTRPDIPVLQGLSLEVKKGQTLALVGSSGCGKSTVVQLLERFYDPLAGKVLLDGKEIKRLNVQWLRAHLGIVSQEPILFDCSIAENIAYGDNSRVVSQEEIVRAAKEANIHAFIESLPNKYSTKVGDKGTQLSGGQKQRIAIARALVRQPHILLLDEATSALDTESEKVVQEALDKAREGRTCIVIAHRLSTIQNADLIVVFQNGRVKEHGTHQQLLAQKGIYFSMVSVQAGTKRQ
Sequence of CYP3A4 (P08684 whole entry): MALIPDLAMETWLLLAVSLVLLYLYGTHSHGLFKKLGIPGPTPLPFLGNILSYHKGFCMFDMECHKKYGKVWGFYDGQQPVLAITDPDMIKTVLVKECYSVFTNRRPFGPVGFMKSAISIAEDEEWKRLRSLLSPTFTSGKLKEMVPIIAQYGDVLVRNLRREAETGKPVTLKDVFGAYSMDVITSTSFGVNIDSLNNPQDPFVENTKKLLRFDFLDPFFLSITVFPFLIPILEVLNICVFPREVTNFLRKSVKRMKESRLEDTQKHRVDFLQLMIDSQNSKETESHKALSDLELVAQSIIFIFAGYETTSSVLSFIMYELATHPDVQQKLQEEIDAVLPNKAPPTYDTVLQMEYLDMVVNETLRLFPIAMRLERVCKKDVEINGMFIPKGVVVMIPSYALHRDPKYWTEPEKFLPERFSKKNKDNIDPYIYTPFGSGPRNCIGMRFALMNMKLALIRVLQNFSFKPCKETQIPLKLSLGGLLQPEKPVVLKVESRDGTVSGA

In the case of `C[C@@H](c1ncncc1F)[C@](O)(Cn1cncn1)c1ccc(F)cc1F` [Voriconazole, (2R,3S)-2-(2,4-difluorophenyl)-3-(5-fluoropyrimidin-4-yl)-1-(1H-1,2,4-triazol-1-yl)butan-2-ol], the “Inhibitor of P-gp” value in data set [1] is listed as “not an inhibitor”.
`CN/C(=N/CCSCc1nc[nH]c1C)NC#N` [Cimetidine, 2-cyano-1-methyl-3-(2-[(5-methyl-1H-imidazol-4-yl)methylthio]ethyl)guanidine]: in data set [1], the “Inhibitor of P-gp” value is on record as “not an inhibitor”.
For the molecule `OC(Cn1cncn1)(Cn1cncn1)c1ccc(F)cc1F` [Fluconazole, 2-(2,4-difluorophenyl)-1,3-bis(1H-1,2,4-triazol-1-yl)propan-2-ol], in data set [2], the “Strength as inhibitor of CYP3A4” value was “moderate (“Moderate inhibitors” cause ≧2-fold but <5-fold (i.e., 100-399%) increase in AUC)”. Also, the “Inhibitor of P-gp” value in data set [1] is reported as “not an inhibitor”.
